Marks after values point to notes of the source that are not given here.
Tests used:
[1] = test system: Cobb 500FF breeder chickens; test: Broiler breeder performance, partial replacement of vitamin E by PROVIOX 50 (Example 1); assay type: in vivo, chicken
Procedure: Two different breeder diets (Table 1) were tested in a randomized block design. Breeders received a standard control diet or a diet where 50% of the vitamin E was replaced by PROVIOX 50. The two diets were randomly distributed into six cages, resulting in three replicates per treatment with 28, 29, or 30 females and […] per replicate.
The experimental period lasted four weeks; the breeders received a lay start diet during the entire period according to the experimental design. Feed and water were restricted. Feed amount depended on body weight development. Water was provided for two hours a day, crops were checked regularly to ensure the correct amount of water was provided.
A total of 24 male and 173 female Cobb 500FF 20-week-breeder chickens were procured. The males and females were randomly assigned to six floor pens (four males per pen, 29 females in pens 1-3, 30 females in pen 4, and 28 females in pens 5 and 6). During the pre-trial period, all breeders received the control diet.
Throughout the trial, breeders were housed in broiler breeder floor pens ([…]) on litter (flax). Each pen was equipped with two bell drinkers adjustable in height. The feed for the females was supplied via two feeder bowls on the raised slatted floor. The feed for the males was supplied via a feeder trough on the other side of the pen.
Day length was set at 14 hours a day until peak production was reached (70%; day 15). After peak production was achieved, day length was set to 15 hours a day. Temperature and ventilation were computer controlled. The temperature was set at 20° C. for the entire experimental period.
Individual bird weights were recorded weekly from the start of the experiment. Feed amount provided was recorded on a daily basis. Egg production and egg quality data were recorded on a daily basis. Laying % was calculated as number of eggs produced per pen divided by the number of bird days of the experimental period. Egg mass production per pen per week was calculated as laying % (including second-class eggs) times average egg weight of the pen. Average egg weight was determined per pen once a week. Second-class eggs were divided into dirty eggs, broken eggs, shell-less eggs, double-yolk eggs, floor eggs and remaining second-class eggs. Mortality was checked every day; dead animals were not replaced during the experimental period.

sows and piglets [2] = test: Total antioxidant status (TAS) in serum of sows and piglets (Example 10); assay type: in vivo, pig; conditions: for Total antioxidant status (TAS) in serum of piglets: piglets at 21 days
Text: (§1) The performance following criteria were monitored during the trial: (i) Sows response criteria (actual parity, farrowing rate, culled sows—number and reasons, wean-to-mating interval, farrowing rate in the next cycle); (ii) litter response criteria (number of piglets, total, alive, stillborn, mummies; weight of piglets and litters; survival). The following biochemical (blood) criteria were monitored during the trial for the sows (mating, farrowing and weaning), piglets 21st day: (i) glutathione peroxidase (GPx) activity; (ii) superoxide dismutase (SOD) activity; (iii) total antioxidant status (TAS); (iv) vitamin E content; (v) vitamin A content.
(§2) To determine the oxidative status, the blood samples were collected from sows and piglets into tubes with lithium anticoagulant—received whole blood for analysis. At the same time blood samples were taken for blood clot. They were centrifuged (1500 rpm, 15 Temp. 4° C.) and obtained serum was pipetted into separate tubes.
(§3) In studies of oxidative status of sows and piglets were used suitable to each of the indicators, the reagent kits from Sigma-Aldrich. Determination was made in accordance with the descriptions of the rules and procedures specified by the manufacturer.
(§4) The content of the TAS (total antioxidant status) were determined using the Antioxidant assay kit (Cat. No CS0790), the activity of SOD (superoxide dismutase) was determined using SOD determination kit 19160, the activity of GPx (glutathione Peroxide assai Cellular Activity Kit) Cat. No CGP1. The content of vitamins A and E by McMurray and Blanchflower 1979 (Journal of Chromatography 178, 525-531.). TAS
Serum samples (10 ul) in duplicate were incubated at room temperature for 5 minutes with the working solution of ABTS (2,2-azino-bis (3-ethylbenzthiazoline-6-sulfonic acid) (150 pl) and the solution with myoglobin (20 pl). Simultaneously the calibration curve was performed based on serial dilutions of Trolox equivalent in the range of 0.015 to 0.42 mM (mmol).
The formed a ferryl radical from myoglobin and hydrogen peroxide causes oxidation of ABTS and production of radical cation ABTS*. The resulting chromogen has a blue-green color. In the presence of antioxidants the radical cation is suppressed to an extent dependent on the activity of the antioxidant and the color intensity is decreased proportionally. The color was measured with a spectrophotometer at a wavelength of 405 nm.

sows and piglets [3] = test: Glutathione peroxidase (GPx) activity in blood of sows and piglets (Example 10); assay type: in vivo, pig; conditions: for Activity of glutathione peroxidase (GPx) in blood of piglets: piglets at 21 days
Text: as §1, §2, §3, §4
Whole blood samples (blood collection from animals to tubes with lithium anticoagulant) in duplicate (10 pl) was added to […] of buffer (pH 8), mixed (vortex—10′), then added 10 pl of a 70% aqueous solution of tert-butyl Hydroperoxide, mixed (by inversion) and the absorbance was measured immediately in a spectrophotometer at a wavelength of 340 nm. After 1 minute the measurement was repeated. Simultaneously blank samples (reagent) were performed and a calibration curve based on GPx serial dilutions in the range of 20 to 50 U/ml. The decrease in NADPH absorbance (during 1 minute) measured at 340 nm during the oxidation of NADPH to NADP+ is indicative of GPx activity.

[4] = breeders 26 through 30 weeks of age
[5] = Breeding, Group 2: vitamin E 50/75 mg/kg diet
[6] = Breeding, Group 3: vitamin E 100/150 mg/kg diet
[7] = Farrowing, Group 2: vitamin E 50/75 mg/kg diet
[8] = Farrowing, Group 3: vitamin E 100/150 mg/kg diet
[9] = Weaning, Group 2: vitamin E 50/75 mg/kg diet
[10] = Weaning, Group 3: vitamin E 100/150 mg/kg diet
[11] = Group 2: vitamin E 50/75 mg/kg sow diet
[12] = Group 3: vitamin E 100/150 mg/kg sow diet

Cc1c(C)c2c(c(C)c1O)CCC(C)(CCCC(C)CCCC(C)CCCC(C)C)O2 (racemic) [Vitamin E, DL-α-tocopherol]
Egg Mass [1, 4]: 47.1 g/hen/day
Egg Weight [1, 4]: 56.4 g
First Class Eggs [1, 4]: 77.9%
Second Choice Eggs: Broken Eggs [1, 4]: 1.6%
Second Choice Eggs: Dirty Eggs [1, 4]: 0.7%
Second Choice Eggs: Double Yolk Eggs [1, 4]: 1.3%
Second Choice Eggs: Floor Eggs [1, 4]: 1.4%
Second Choice Eggs: Remainder [1, 4]: 0.5%
Second Choice Eggs: Shell Less Eggs [1, 4]: 0.1%
Laying Percentage ([1]; breeders 26 through 30 weeks of age, half of vitamin E replaced by PROVIOX 50): 83.6%
BW 30 wk Females ([1]; in vivo): 3.68 kg
BW 30 wk Males ([1]; in vivo): 4.19 kg
BW 26 wk Females ([1]; start of experiment): 3.50 kg
BW 26 wk Males ([1]; start of experiment): 3.91 kg
Total antioxidant status (TAS) in serum of sows (sows and piglets [2]; [5]): 1.26 mmol/L
Total antioxidant status (TAS) in serum of sows (sows and piglets [2]; [6]): 1.29 mmol/L
Total antioxidant status (TAS) in serum of sows (sows and piglets [2]; [7]): 1.18^a mmol/L
Total antioxidant status (TAS) in serum of sows (sows and piglets [2]; [8]): 1.19^a mmol/L
Total antioxidant status (TAS) in serum of sows (sows and piglets [2]; [9]): 1.18^B mmol/L
Total antioxidant status (TAS) in serum of sows (sows and piglets [2]; [10]): 1.20^Ba mmol/L
Total antioxidant status (TAS) in serum of piglets (sows and piglets [2]; [11]): 1.16^B mmol/L
Total antioxidant status (TAS) in serum of piglets (sows and piglets [2]; [12]): 1.18^A mmol/L
Activity of glutathione peroxidase (GPx) in blood of sows (sows and piglets [3]; [5]): 37.73 U/ml
Activity of glutathione peroxidase (GPx) in blood of sows (sows and piglets [3]; [6]): 38.85 U/ml
Activity of glutathione peroxidase (GPx) in blood of sows (sows and piglets [3]; [7]): 32.77^C U/ml
Activity of glutathione peroxidase (GPx) in blood of sows (sows and piglets [3]; [8]): 37.64^B U/ml
Activity of glutathione peroxidase (GPx) in blood of sows (sows and piglets [3]; [9]): 34.78^C U/ml
Activity of glutathione peroxidase (GPx) in blood of sows (sows and piglets [3]; [10]): 36.48^B U/ml
Activity of glutathione peroxidase (GPx) in blood of piglets (sows and piglets [3]; [11]): 29.12^B U/ml
Activity of glutathione peroxidase (GPx) in blood of piglets (sows and piglets [3]; [12]): 29.91^B U/ml

— patent US20170119020A1, “METHOD OF FEEDING AN ANIMAL” (CARGILL, INCORPORATED, priority 2014, published 2017)
